Data: the supplement of paper PMC10307832

Legend:
[1] = compound: COc1cc(Nc2ncc(F)c(Nc3ccc4c(n3)NC(=O)C(C)(C)O4)n2)cc(OC)c1OC [R406]; test: relative viability (nuclei count vs DMSO), 5 days (fraction); higher = more cells survive
How it was run: (§1)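 A plate was accepted only when its control CV was below 25% and the cells had doubled at least once. Viability is defined from nuclear counts as treated wells divided by vehicle wells, with the median taken across plates. That median covers lung cancer cell lines grown in 1536-well plates, dosed by pinning at five √10-spaced library-drug concentrations, and counted in MetaXpress from 4× Hoechst images after 5 days.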

[2] = compound: O=C(/C=C/c1cccnc1)NCCCCC1CCN(C(=O)c2ccccc2)CC1 [Daporinad]; test: as above
How it was run: as §1

Cell Line	relative viability ([1]; 0.08 µM)	relative viability ([1]; 0.253 µM)	relative viability ([1]; 0.8 µM)	relative viability ([1]; 2.53 µM)	relative viability ([1]; 8 µM)	relative viability ([2]; 0.0005 µM)	relative viability ([2]; 0.001581 µM)	relative viability ([2]; 0.005 µM)	relative viability ([2]; 0.01581 µM)
201T	0.929	1.02	1.06	0.844	0.67	0.962	1.04	0.972	1.01
A549	0.898	1.02	1.1	0.857	0.518	1.03	1.05	0.944	0.903
A-427	0.974	1.23	1.14	0.708	0.639	0.952	1.12	0.982	0.602
ABC-1	0.761	1.06	0.895	0.619	0.535	0.802	0.934	0.832	0.659
BEN	0.862	1.24	1.03	1.05	0.832	0.962	1.04	0.969	1.31
CAL-12T	0.993	1.22	1.12	0.511	0.434	0.904	1.03	0.735	0.269
COR-L23	0.953	1.17	1.16	0.901	0.592	1.02	1.04	0.908	0.275
COR-L 105	0.911	1.05	1.12	0.666	0.418	0.906	0.976	0.991	0.969
Calu-6	0.98	1.06	1.11	0.724	0.503	0.955	1.04	0.917	0.533
ChaGo-K-1	0.948	1.12	0.974	0.944	0.73	1.03	0.86	0.94	0.509
EBC-1	0.99	1.14	1.25	0.877	0.481	0.829	1.06	1.03	1.08
EKVX	0.928	1.12	1.1	0.855	0.722	0.933	0.95	0.974	1.14
EMC-BAC-2	0.917	1.13	1.08	0.849	0.405	1.01	1.09	0.766	0.487
EPLC-272H	0.919	0.975	1.07	0.438	0.379	0.856	1.04	1.06	1.04
H3255	0.943	1.16	0.989	0.859	0.873	0.842	1	1.06	1.19
HARA	0.975	0.965	1.1	0.676	0.365	0.903	0.958	0.964	0.583
HCC-15	0.919	1.23	1.17	0.81	0.629	0.967	1.15	1.14	1.05
HCC-44	0.979	0.976	0.94	0.928	0.711	0.992	0.993	0.97	1
HCC-78	0.953	1.08	1.06	0.708	0.48	0.81	0.938	1.06	1.12
HCC-366	1	1.1	1.03	0.432	0.565	1.04	1.01	1.02	1.03
HCC-827	1.09	1.07	1.1	0.903	0.672	1.02	1.06	1.03	1.1
HOP-62	0.998	1.16	0.97	1.04	1.09	0.94	1.08	1.03	0.491
IA-LM	1.07	1.19	0.957	1.05	0.913	0.888	0.896	0.968	0.859
LC-2-ad	0.965	0.987	1.04	0.539	0.312	0.934	1.1	1.03	0.957
LCLC-97TM1	0.885	1.18	0.964	0.804	0.632	0.948	1.15	1.07	0.941

Cell Line	relative viability ([1]; 0.08 µM)	relative viability ([1]; 0.253 µM)	relative viability ([1]; 0.8 µM)	relative viability ([1]; 2.53 µM)	relative viability ([1]; 8 µM)	relative viability ([2]; 0.0005 µM)	relative viability ([2]; 0.001581 µM)	relative viability ([2]; 0.005 µM)	relative viability ([2]; 0.01581 µM)
LCLC-103H	0.889	1.04	0.952	0.84	0.579	0.928	1.16	1.04	1
LK-2	0.86	1.22	1.09	0.682	0.431	0.909	1.18	0.781	0.283
LOU-NH91	0.916	0.963	0.928	0.512	0.576	0.996	1.05	1.14	1.24
LU99A	0.984	0.983	1.22	0.796	0.824	0.975	1.09	1.08	0.966
LXF-289	0.976	1.06	1.04	0.956	0.845	0.959	1.1	1.09	1.1
NCI-H23	0.948	1.21	1.1	0.264	0.252	1.03	1.06	0.973	0.53
NCI-H322M	0.889	0.922	0.939	0.542	0.405	0.906	1.05	0.936	0.751
NCI-H358	0.935	1.04	1.03	0.339	0.246	0.877	0.929	1.03	1.06
NCI-H441	0.903	1.16	1.31	0.424	0.611	0.898	1.13	1.18	1.07
NCI-H460	0.965	1.11	1.09	0.966	0.766	0.996	1.02	0.953	1.02
NCI-H520	0.869	1.12	1.12	0.559	0.298	1.14	0.804	0.286	0.238
NCI-H522	0.889	1.1	1.13	0.78	0.617	1.04	0.931	1.06	0.738
NCI-H596	0.959	1.22	1.04	0.663	0.397	0.911	1.02	0.991	0.638
NCI-H647	0.943	1.13	1.1	0.538	0.233	0.914	1.11	1.07	1.05
NCI-H650	0.895	1.12	1	0.791	0.653	0.899	0.953	1.05	1.01
NCI-H661	0.888	0.947	1.01	0.967	0.649	1.01	0.982	0.72	0.605
NCI-H727	0.817	0.888	0.964	0.806	0.668	0.931	1.06	1.06	0.884
NCI-H838	0.911	1.08	1.11	0.544	0.214	0.999	1.03	1.04	0.657
NCI-H1299	1	1.08	1.07	1.06	0.744	1.01	1.04	1.04	1.04
NCI-H1355	0.977	1.13	1.11	0.626	0.61	0.968	1.13	1.14	1.03
NCI-H1395	1.01	1.05	1.02	0.713	0.635	0.88	1.09	1.09	0.969
NCI-H1437	0.994	1.08	1.06	0.884	0.622	0.891	1.01	1.01	0.99
NCI-H1563	0.904	0.971	1.01	0.928	0.539	1.07	0.995	0.983	0.904
NCI-H1623	0.908	1.05	1.11	0.818	0.893	0.822	1.15	0.957	1.05
NCI-H1648	0.759	0.614	1.03	0.795	0.786	0.836	0.933	0.9	0.835

Cell Line	relative viability ([1]; 0.08 µM)	relative viability ([1]; 0.253 µM)	relative viability ([1]; 0.8 µM)	relative viability ([1]; 2.53 µM)	relative viability ([1]; 8 µM)	relative viability ([2]; 0.0005 µM)	relative viability ([2]; 0.001581 µM)	relative viability ([2]; 0.005 µM)	relative viability ([2]; 0.01581 µM)
NCI-H1650	1.02	1.23	1.06	0.212	0.155	0.981	1.05	1.07	0.848
NCI-H1651	0.926	1.1	1.05	0.899	0.667	1.01	1.03	1.05	0.874
NCI-H1666	1	1.02	1.05	1.03	0.876	0.891	1.17	1.05	1
NCI-H1703	0.966	0.924	1.21	0.238	0.172	1.03	1.2	1.2	0.934
NCI-H1734	0.985	1.18	1.16	0.269	0.418	1.04	1.14	0.975	0.453
NCI-H1755	0.947	1.05	1.13	0.838	0.796	0.966	0.989	1.03	1.02
NCI-H1792	1	1.07	1.17	0.251	0.386	0.828	1.17	1.11	1.15
NCI-H1793	0.731	1.17	1.13	0.159	0.279	0.801	0.959	0.984	1.09
NCI-H1915	1.01	1.15	1.05	0.667	0.835	1.01	1.13	1.07	1.03
NCI-H1944	0.932	1.08	0.986	0.858	0.783	0.921	1.05	1.07	1.02
NCI-H1975	0.848	1.03	1.02	0.479	0.385	1.05	0.916	1.01	0.968
NCI-H1993	1.01	1.09	0.921	0.658	0.599	0.881	0.99	1.05	1.15
NCI-H2009	0.975	1.04	1.11	0.853	0.376	0.918	1.08	1.07	0.905
NCI-H2023	0.902	1.05	1.12	0.388	0.241	0.982	1.15	1.09	0.987
NCI-H2085	0.99	1.06	1.1	0.823	0.736	0.984	1.02	1.08	1.18
NCI-H2087	1.05	1.16	1.23	0.428	0.851	0.906	1.16	1.22	1.02
NCI-H2126	1.05	1.04	1.07	0.918	0.849	1.02	0.978	1.03	1.09
NCI-H2170	0.962	0.972	1.06	0.729	0.892	0.923	1.06	1.03	1.06
NCI-H2228	1.1	1.3	1.15	0.385	0.298	0.925	0.846	1.24	0.973
NCI-H2342	1	0.964	1.01	0.916	0.93	1.08	0.839	0.952	0.974
NCI-H2347	1.06	1.18	1.11	0.935	0.796	1.13	1.13	1.02	1.09
NCI-H2405	0.98	1.11	1.06	0.746	0.382	1.08	1.12	1.02	0.509
NCI-H3122	0.948	1	0.989	0.945	0.977	0.955	1	1.05	0.984
PC-3 [JPC-3]	1.04	1.17	1.04	0.819	0.647	1.02	1.1	1.14	1.12
